In US9139529B2, “Substituted quinoxalines as sodium channel modulators” (VERTEX PHARMACEUTICALS INCORPORATED, priority 2013, dated 2015) one finds IC50 data, which are given here for ten compounds.

For the assay, the target named is human Nav1.8 (Homo sapiens (Human), UniProt Q9Y5Y9). Briefly: E-VIPR optical membrane potential assay with electrical stimulation. The assay is classed as cell-based. Particulars: HEK cells expressing human Nav1.8. The text has this:
Assays for Detecting and Measuring NaV Inhibition Properties of Compounds E-VIPR Optical Membrane Potential Assay Method with Electrical Stimulation
Sodium channels are voltage-dependent proteins that can be activated by inducing membrane voltage changes by applying electric fields. The electrical stimulation instrument and methods of use are described in Ion Channel Assay Methods PCT/US01/21652, herein incorporated by reference and are referred to as E-VIPR. The instrument comprises a microtiter plate handler, an optical system for exciting the coumarin dye while simultaneously recording the coumarin and oxonol emissions, a waveform generator, a current- or voltage-controlled amplifier, and a device for inserting electrodes in well. Under integrated computer control, this instrument passes user-programmed electrical stimulus protocols to cells within the wells of the microtiter plate.
24 hours before the assay on E-VIPR, HEK cells expressing human Nav1.8 were seeded in 384-well poly-lysine coated plates at 15,000-20,000 cells per well. HEK cells were grown in media (exact composition is specific to each cell type and NaV subtype) supplemented with 10% FBS (Fetal Bovine Serum, qualified; GibcoBRL #16140-071) and 1% Pen-Strep (Penicillin-Streptomycin; GibcoBRL #15140-122). Cells were grown in vented cap flasks, in 90% humidity and 5% CO2.
1) Pre-spotted compounds (in neat DMSO) into compound plates. Vehicle control (neat DMSO), the positive control (20 mM DMSO stock tetracaine, 125 μM final in assay) and test compounds were added to each well at 160× desired final concentration in neat DMSO. Final compound plate volume was 80 μL (80-fold intermediate dilution from 1 μL DMSO spot; 160-fold final dilution after transfer to cell plate). Final DMSO concentration for all wells in assay was 0.625%.
2) Prepared Hexyl Dye Solution.
3) Prepared cell plates. On the day of the assay, medium was aspirated and cells were washed three times with 100 μL of Bath1 Solution, maintaining 25 μL residual volume in each well.
4) Dispensed 25 μL per well of Hexyl Dye Solution into cell plates. Incubated for 20-35 minutes at room temp or ambient conditions.
5) Dispensed 80 μL per well of Bath1 into compound plates. Acid Yellow-17 (1 mM) was added and Potassium Chloride was altered from 4.5 to 20 mM depending on the NaV subtype and assay sensitivity.
6) Washed cell plates three times with 100 μL per well of Bath1, leaving 25 μL of residual volume. Then transferred 25 uL per well from Compound Plates to Cell Plates. Incubated for 20-35 minutes at room temp/ambient condition.
7) Read Plate on E-VIPR. Used the current-controlled amplifier to deliver stimulation wave pulses for 10 seconds and a scan rate of 200 Hz. A pre-stimulus recording was performed for 0.5 seconds to obtain the un-stimulated intensities baseline. The stimulatory waveform was followed by 0.5 seconds of post-stimulation recording to examine the relaxation to the resting state.
Data was analyzed and reported as normalized ratios of emission intensities measured in the 460 nm and 580 nm channels. The response as a function of time was reported as the ratios obtained using the following formula: […]
The data was further reduced by calculating the initial (Ri) and final (Rf) ratios. These were the average ratio values during part or all of the pre-stimulation period, and during sample points during the stimulation period. The response to the stimulus R=Rf/Ri was then calculated and reported as a function of time.
Control responses were obtained by performing assays in the presence of a compound with the desired properties (positive control), such as tetracaine, and in the absence of pharmacological agents (negative control). Responses to the negative (N) and positive (P) controls were calculated as above. The compound antagonist activity A is defined as:
[formula] where R is the ratio response of the test compound

Sequence of human Nav1.8 (Q9Y5Y9 whole entry): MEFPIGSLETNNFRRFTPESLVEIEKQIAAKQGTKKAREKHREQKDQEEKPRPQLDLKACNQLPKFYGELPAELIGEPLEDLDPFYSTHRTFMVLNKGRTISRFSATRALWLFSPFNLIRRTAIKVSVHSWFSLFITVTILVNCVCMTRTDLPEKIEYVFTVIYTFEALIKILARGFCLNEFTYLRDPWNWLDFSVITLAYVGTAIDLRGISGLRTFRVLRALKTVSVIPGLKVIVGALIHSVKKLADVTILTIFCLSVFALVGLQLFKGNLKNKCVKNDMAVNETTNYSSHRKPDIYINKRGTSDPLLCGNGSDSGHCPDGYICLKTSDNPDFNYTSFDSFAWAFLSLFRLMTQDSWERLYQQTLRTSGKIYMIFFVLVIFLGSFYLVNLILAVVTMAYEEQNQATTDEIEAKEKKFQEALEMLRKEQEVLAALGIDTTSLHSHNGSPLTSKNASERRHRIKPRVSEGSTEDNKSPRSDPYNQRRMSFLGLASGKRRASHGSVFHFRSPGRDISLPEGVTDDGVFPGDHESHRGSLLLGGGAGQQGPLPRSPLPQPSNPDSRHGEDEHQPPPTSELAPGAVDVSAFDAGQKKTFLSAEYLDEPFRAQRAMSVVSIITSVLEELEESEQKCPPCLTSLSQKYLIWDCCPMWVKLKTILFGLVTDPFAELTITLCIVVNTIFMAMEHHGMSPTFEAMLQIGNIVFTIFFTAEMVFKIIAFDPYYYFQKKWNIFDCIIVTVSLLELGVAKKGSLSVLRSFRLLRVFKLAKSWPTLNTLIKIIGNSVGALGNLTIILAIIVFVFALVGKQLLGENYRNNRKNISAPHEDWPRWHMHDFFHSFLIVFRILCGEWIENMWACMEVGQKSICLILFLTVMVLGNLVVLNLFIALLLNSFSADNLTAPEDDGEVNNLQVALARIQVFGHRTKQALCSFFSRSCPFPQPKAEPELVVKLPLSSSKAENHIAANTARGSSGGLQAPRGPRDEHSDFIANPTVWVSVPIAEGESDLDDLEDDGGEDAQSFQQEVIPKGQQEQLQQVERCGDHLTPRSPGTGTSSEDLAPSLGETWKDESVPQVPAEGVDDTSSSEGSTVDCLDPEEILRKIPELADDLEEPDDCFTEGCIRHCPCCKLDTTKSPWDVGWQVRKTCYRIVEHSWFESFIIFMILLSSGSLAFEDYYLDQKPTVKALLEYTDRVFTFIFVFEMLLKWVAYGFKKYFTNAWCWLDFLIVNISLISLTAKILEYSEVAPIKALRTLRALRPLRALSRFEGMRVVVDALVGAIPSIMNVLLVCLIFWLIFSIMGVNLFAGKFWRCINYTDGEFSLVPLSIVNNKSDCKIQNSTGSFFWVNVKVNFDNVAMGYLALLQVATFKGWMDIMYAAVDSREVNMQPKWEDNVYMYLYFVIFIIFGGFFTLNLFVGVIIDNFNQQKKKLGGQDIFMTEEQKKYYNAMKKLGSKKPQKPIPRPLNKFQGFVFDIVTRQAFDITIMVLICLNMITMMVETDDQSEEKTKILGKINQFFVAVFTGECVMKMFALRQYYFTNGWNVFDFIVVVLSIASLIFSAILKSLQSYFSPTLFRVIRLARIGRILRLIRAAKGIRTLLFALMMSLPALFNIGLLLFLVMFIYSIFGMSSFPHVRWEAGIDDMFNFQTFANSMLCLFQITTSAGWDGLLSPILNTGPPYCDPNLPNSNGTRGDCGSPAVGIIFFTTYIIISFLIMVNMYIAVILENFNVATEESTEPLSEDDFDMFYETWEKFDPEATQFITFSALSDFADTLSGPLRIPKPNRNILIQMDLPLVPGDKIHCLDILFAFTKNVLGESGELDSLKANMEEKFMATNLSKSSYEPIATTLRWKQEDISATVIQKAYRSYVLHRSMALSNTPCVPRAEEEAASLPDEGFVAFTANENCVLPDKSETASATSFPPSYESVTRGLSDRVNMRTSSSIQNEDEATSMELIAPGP

`COc1cc(F)ccc1Oc1nc2ccccc2nc1C(=O)Nc1ccncc1` [Compound 53, 3-(4-fluoro-2-methoxyphenoxy)-N-(pyridin-4-yl)quinoxaline-2-carboxamide]: half-maximal inhibition (IC50) required 22 nM.
On to `O=C(O)c1ccc(NC(=O)c2nc3ccccc3nc2Oc2ccccc2OC(F)F)cn1` [Compound 24, 5-(3-(2-(difluoromethoxy)phenoxy)quinoxaline-2-carboxamido)picolinic acid], for which 340 nM corresponded to half-maximal inhibition (IC50).
As to `NS(=O)(=O)c1cccc(NC(=O)c2cc3ccccc3nc2Oc2ccccc2)c1` [Compound 64, 2-phenoxy-N-(3-sulfamoylphenyl)quinoline-3-carboxamide], the IC50 (commonly the point on the concentration scale where inhibition reaches its midpoint) came out at 81 nM.
Turning to `COc1cc(F)ccc1Oc1nc2ccccc2nc1C(=O)Nc1ccnc(C(=O)O)c1` [Compound 34, 4-(3-(4-fluoro-2-methoxyphenoxy)quinoxaline-2-carboxamido)picolinic acid], the half-maximal inhibitory concentration (IC50) worked out at 16 nM.
The figure for `COc1ccc(Oc2nc3ccccc3cc2C(=O)Nc2cccc(S(N)(=O)=O)c2)c(Cl)c1` [Compound 69, 2-(2-chloro-4-methoxyphenoxy)-N-(3-sulfamoylphenyl)quinoline-3-carboxamide] is 15 nM; for `COc1cc(F)ccc1Oc1nc2ccccc2nc1C(=O)Nc1ccc(C(N)=O)cc1` [Compound 58, N-(4-carbamoylphenyl)-3-(4-fluoro-2-methoxyphenoxy)quinoxaline-2-carboxamide] it is 31 nM; for `NS(=O)(=O)c1cccc(NC(=O)c2nc3ccccc3nc2Oc2ccc(F)cc2Cl)c1` [Compound 6, 3-(2-chloro-4-fluorophenoxy)-N-(3-sulfamoylphenyl)quinoxaline-2-carboxamide] it is 3 nM.
The figure for `COc1cc(F)ccc1Oc1nc2ccccc2nc1C(=O)Nc1nc[nH]n1` [Compound 38, 3-(4-fluoro-2-methoxyphenoxy)-N-(1H-1,2,4-triazol-3-yl)quinoxaline-2-carboxamide] is 1220 nM; for `COc1ccc(Oc2nc3ccccc3nc2C(=O)Nc2ccc(C(=O)O)nc2)c(OC)c1` [Compound 26, 5-(3-(2,4-dimethoxyphenoxy)quinoxaline-2-carboxamido)picolinic acid] it is 46 nM; for `O=C(O)c1ccc(NC(=O)c2nc3ccccc3nc2Oc2ccc(F)cc2F)cn1` [Compound 29, 5-(3-(2,4-difluorophenoxy)quinoxaline-2-carboxamido)picolinic acid] it is 185 nM.
